Target: hTREM2 (Homo sapiens, UniProt Q9NZC2)
Experiment: TREM2 activity by cellular Syk phosphorylation (AlphaScreen/AlphaLISA) in TREM2/DAP12-HEK cells, used for Examples 1-305
Assay type: cell-based
Parameters: expressed in transfected cells
Settings: HEK293 Cells
Outline: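 Single-cell-cloned HEK293 cells overexpressing TREM2 and DAP12, seeded 20 h, exposed to test articles (1% final DMSO) for 45 min at room temperature. Lysates read for phospho-Syk (Tyr525/526) vs total Syk by AlphaScreen. Signal normalised as percent of control between isotype IgG and 100 nM anti-TREM2 antibody; 4-parameter logistic fit.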

Sequence of hTREM2 (Q9NZC2 19-230): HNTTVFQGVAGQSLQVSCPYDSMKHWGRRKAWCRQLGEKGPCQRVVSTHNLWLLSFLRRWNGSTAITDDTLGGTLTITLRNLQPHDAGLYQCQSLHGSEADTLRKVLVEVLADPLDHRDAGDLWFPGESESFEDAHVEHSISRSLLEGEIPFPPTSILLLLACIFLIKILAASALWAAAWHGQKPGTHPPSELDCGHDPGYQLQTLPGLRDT
Sequence of hTREM2 (O43914 22-113 partner): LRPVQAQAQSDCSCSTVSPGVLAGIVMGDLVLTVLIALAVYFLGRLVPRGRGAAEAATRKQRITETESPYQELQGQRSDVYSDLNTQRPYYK

Row | SMILES | EC50 [nM] | hTREM2 Emax
1 | Cc1cnc2c(-c3ccc(F)cc3F)nc(N3CCO[C@@H](c4cnn(C)c4)C3)nc2n1 [Example 6, 4-(2,4-difluorophenyl)-7-methyl-2-((2S)-2-(1-methyl-1H-pyrazol-4-yl)-4-morpholinyl)pteridine] | 50 to 500 | +++ (Emax>150 and ≤250)
2 | Cc1nc2nc(N3CCO[C@@H](c4cnn(C)c4)C3)nc([C@H]3CC[C@@H](C(F)(F)F)CC3)c2nc1C [Example 131, 6,7-dimethyl-2-((2S)-2-(1-methyl-1H-pyrazol-4-yl)-4-morpholinyl)-4-(cis-4-(trifluoromethyl)cyclohexyl)pteridine] | 50 to 500 | +++ (Emax>150 and ≤250)
3 | Cc1nc2cc([C@H]3C[C@@H](C)O[C@@H](c4cnn(C)c4)C3)nc(-c3ccc(Cl)cc3F)c2nc1C (single isomer, unassigned) [Example 230] | 50 to 500 | ++++ (Emax>250)
4 | Cc1cnc2c(-c3ccc(Cl)cc3F)cc(N3CCO[C@@H](c4cnn(C)c4)C3)nc2n1 [Example 159, 8-(4-chloro-2-fluorophenyl)-3-methyl-6-((2S)-2-(1-methyl-1H-pyrazol-4-yl)-4-morpholinyl)pyrido [2,3-b]pyrazine] | 50 to 500 | +++ (Emax>150 and ≤250)
5 | Cc1nc2cc([C@@H]3CCO[C@H](c4cnn(C5CC5)c4)C3)nc(-c3ccc(Cl)cc3F)c2nc1C [Example 297, 5-(4-chloro-2-fluorophenyl)-7-((2S,4R)-2-(1-cyclopropyl-1H-pyrazol-4-yl)tetrahydro-2H-pyran-4-yl)-2,3-dimethylpyrido[3,4-b]pyrazine] | 3000 to 100000 | –
6 | Cc1cc([C@H]2CN(c3cc4nc(C)ccc4c(-c4ccc(Cl)cc4F)n3)CCO2)ccn1 [Example 151, 5-(4-chloro-2-fluorophenyl)-2-methyl-7-((2S)-2-(2-methyl-4-pyridinyl)-4-morpholinyl)-1,6-naphthyridine] | 50 to 500 | ++++ (Emax>250)
7 | Cc1ccc(-c2nc([C@H]3CCO[C@@H](c4cnn(C)c4)C3)nc3nc(C)c(C)cc23)c(F)c1 (single isomer, unassigned) [Example 203] | ≤ 50 | +++ (Emax>150 and ≤250)
8 | Cc1nc2nc([C@H]3CCO[C@@H](c4cnn(C5CC5)c4)C3)nc(-c3ccc(C(F)(F)F)nc3)c2nc1C [Example 300, 2-((2R,4S)-2-(1-cyclopropyl-1H-pyrazol-4-yl)tetrahydro-2H-pyran-4-yl)-6,7-dimethyl-4-(6-(trifluoromethyl)pyridin-3-yl)pteridine] | 50 to 500 | +++ (Emax>150 and ≤250)
9 | Cc1nc2nc(N3CCO[C@@H](c4cnn(C)c4)C3)nc(-c3ccc(Cl)cn3)c2nc1C [Example 291, (S)-4-(4-(5-chloropyridin-2-yl)-6,7-dimethylpteridin-2-yl)-2-(1-methyl-1H-pyrazol-4-yl)morpholine] | 50 to 500 | ++++ (Emax>250)
10 | Cc1ccc2c(C34CC(C(F)(F)F)(C3)C4)nc(N3CCO[C@@H](c4cnn(C5CC5)c4)C3)nc2n1 [Example 101, 2-((2S)-2-(1-cyclopropyl-1H-pyrazol-4-yl)-4-morpholinyl)-7-methyl-4-(3-(trifluoromethyl)bicyclo[1.1.1]pentan-1-yl)pyrido[2,3-d]pyrimidine] | 3000 to 100000 | –
11 | Cc1ccc2c(-c3ccc(Cl)cc3F)cc(N3CCO[C@@H](c4cnn(C)c4)C3)nc2n1 [Example 156, 4-(4-chloro-2-fluorophenyl)-7-methyl-2-((2S)-2-(1-methyl-1H-pyrazol-4-yl)-4-morpholinyl)-1,8-naphthyridine] | 50 to 500 | +++ (Emax>150 and ≤250)
12 | Cc1cc([C@H]2CN(c3nc(CCC(F)(F)F)c4nc(C)c(C)nc4n3)CCO2)ccn1 [Example 41, 6,7-dimethyl-2-((2S)-2-(2-methyl-4-pyridinyl)-4-morpholinyl)-4-(3,3,3-trifluoropropyl)pteridine] | 50 to 500 | + (Emax>45 and ≤100)
13 | Cc1cc([C@H]2CN(c3nc4nc(C)c(C)cc4c([C@H]4C[C@H](C(F)(F)F)C4)n3)CCO2)cnn1 (single isomer, unassigned) [Example 114] | ≤ 50 | +++ (Emax>150 and ≤250)
14 | Cc1nc2nc(N3CCO[C@H]([C@H]4CCOC4)C3)nc(-c3ccc(F)cc3F)c2nc1C (single isomer, unassigned) [Example 36] | 50 to 500 | +++ (Emax>150 and ≤250)
15 | Cc1cc2c(-c3ccc(F)cc3F)nc(N3CCO[C@@H](c4cnn(C5CC5)c4)C3)nc2nc1C [Example 169, 2-((2S)-2-(1-cyclopropyl-1H-pyrazol-4-yl)-4-morpholinyl)-4-(2,4-difluorophenyl)-6,7-dimethylpyrido [2,3-d]pyrimidine] | ≤ 50 | +++ (Emax>150 and ≤250)
16 | Cc1cc2c(-c3ccc(Cl)cc3F)nc(N3CCO[C@@H](c4cnn(C)c4)C3)cc2nc1C [Example 152, 5-(4-chloro-2-fluorophenyl)-2,3-dimethyl-7-((2S)-2-(1-methyl-1H-pyrazol-4-yl)-4-morpholinyl)-1,6-naphthyridine] | ≤ 50 | ++++ (Emax>250)
17 | Cc1cnc2c(-c3ccc(Cl)cc3F)nc([C@H]3CCO[C@@H](c4cnn(C)c4)C3)cc2n1 (single isomer, unassigned) [Example 191] | 50 to 500 | ++++ (Emax>250)
18 | Cc1nc2nc(N3CCO[C@H](c4cnn(C)c4)C3)nc(N3CCC[C@@H](F)C3)c2nc1C [Example 262, (R)-4-(4-((R)-3-fluoropiperidin-1-yl)-6,7-dimethylpteridin-2-yl)-2-(1-methyl-1H-pyrazol-4-yl)morpholine] | 3000 to 100000 | –
19 | Cc1cc([C@@H]2CN(c3nc(-c4ccc(Cl)cc4F)c4ccc(C)nc4n3)CCO2)cnn1 (single isomer, unassigned) [Example 87] | 50 to 500 | ++++ (Emax>250)
20 | Cc1nc2nc([C@H]3CCO[C@H](c4cnn(C)c4)C3)cc(-c3ccc(F)cc3F)c2nc1C [Example 265, 8-(2,4-difluorophenyl)-2,3-dimethyl-6-((2S,4S)-2-(1-methyl-1H-pyrazol-4-yl)tetrahydro-2H-pyran-4-yl)pyrido[2,3-b]pyrazine] | 500 to 3000 | +++ (Emax>150 and ≤250)

Continued, values first:

Row | EC50 [nM] | hTREM2 Emax | SMILES
21 | ≤ 50 | +++ (Emax>150 and ≤250) | Cc1cc([C@H]2C[C@H](c3nc(-c4ccc(Cl)cc4F)c4nc(C)c(C)nc4n3)CCO2)ccn1 [Example 273, 4-(4-chloro-2-fluorophenyl)-6,7-dimethyl-2-((2R,4R)-2-(2-methylpyridin-4-yl)tetrahydro-2H-pyran-4-yl)pteridine]
22 | 50 to 500 | +++ (Emax>150 and ≤250) | Cc1ncc([C@H]2C[C@@H](c3nc(-c4ccc(Cl)cc4F)c4nc(C)c(C)nc4n3)CCO2)cn1 (single isomer, unassigned) [Example 209]
23 | 50 to 500 | +++ (Emax>150 and ≤250) | Cc1nc2nc([C@H]3CCO[C@@H](c4cnn(C5CC5)c4)C3)nc(-c3ccc(F)cc3F)c2nc1C [Example 305, 2-((2R,4S)-2-(1-cyclopropyl-1H-pyrazol-4-yl)tetrahydro-2H-pyran-4-yl)-4-(2,4-difluorophenyl)-6,7-dimethylpteridine]
24 | 500 to 3000 | +++ (Emax>150 and ≤250) | Cc1cc([C@H]2C[C@H](c3nc(-c4ccc(F)cc4F)c4ccc(C)nc4n3)CCO2)ccn1 [Example 278, 4-(2,4-difluorophenyl)-7-methyl-2-((2R,4R)-2-(2-methylpyridin-4-yl)tetrahydro-2H-pyran-4-yl)pyrido [2,3-d]pyrimidine]
25 | 3000 to 100000 | – | Cc1nc2cc([C@H]3CCO[C@@H](c4cnn(C5CC5)c4)C3)nc(-c3ccc(Cl)cc3F)c2nc1C [Example 296, 5-(4-chloro-2-fluorophenyl)-7-((2R,4S)-2-(1-cyclopropyl-1H-pyrazol-4-yl)tetrahydro-2H-pyran-4-yl)-2,3-dimethylpyrido[3,4-b]pyrazine]
26 | ≤ 50 | +++ (Emax>150 and ≤250) | Cc1cnc2c(-c3ccc(Cl)cc3F)nc([C@H]3CCO[C@@H](c4cnc(C)nc4)C3)nc2n1 (single isomer, unassigned) [Example 173]
27 | 3000 to 100000 | ++++ (Emax>250) | Cc1nc2cc([C@@H]3CCO[C@@H](c4cnn(C)c4)C3)nc(-c3ccc(Cl)cc3F)c2nc1C [Example 245, 5-(4-chloro-2-fluorophenyl)-2,3-dimethyl-7-((2R,4R)-2-(1-methyl-1H-pyrazol-4-yl)tetrahydro-2H-pyran-4-yl)pyrido[3,4-b]pyrazine]
28 | 50 to 500 | +++ (Emax>150 and ≤250) | Cc1cc([C@@H]2C[C@@H](c3nc(-c4ccc(Cl)cc4F)c4ccc(C)nc4n3)CCO2)ccn1 (single isomer, unassigned) [Example 220]
29 | 500 to 3000 | +++ (Emax>150 and ≤250) | Cc1ccc2c(-c3ccc(Cl)cc3F)nc([C@H]3CCO[C@@H](c4cnn(C)c4)C3)nc2n1 [Example 287, 4-(4-chloro-2-fluorophenyl)-7-methyl-2-((2R,4S)-2-(1-methyl-1H-pyrazol-4-yl)tetrahydro-2H-pyran-4-yl)pyrido[2,3-d] pyrimidine]
30 | 500 to 3000 | +++ (Emax>150 and ≤250) | Cc1ccc(-c2nc([C@@H]3CCO[C@H](c4cnn(C)c4)C3)nc3nc(C)c(C)nc23)c(F)c1 (single isomer, unassigned) [Example 184]
31 | ≤ 50 | +++ (Emax>150 and ≤250) | Cc1nc2nc([C@H]3CCO[C@@H](c4cnn(C)c4)C3)cc(-c3ccc(Cl)cc3F)c2nc1C (single isomer, unassigned) [Example 187]
32 | 500 to 3000 | +++ (Emax>150 and ≤250) | Cc1cnc2c(-c3ccc(Cl)cc3F)nc([C@@H]3CCO[C@H](c4cnn(C5CC5)c4)C3)nc2n1 [Example 270, 4-(4-chloro-2-fluorophenyl)-2-((2S,4R)-2-(1-cyclopropyl-1H-pyrazol-4-yl)tetrahydro-2H-pyran-4-yl)-7-methylpteridine]
